Legend:
[1] = target: T1, Vaccinia topoisomerase (type Ib) (Vaccinia virus, UniProt P68698); experiment: biochemical; format: biochemical
T1 construct: made in house; host or cells: Escherichia coli BL21 infected with bacteriophage λCE6

[2] = target: T1, Vaccinia topoisomerase (type Ib); experiment: biochemical; conditions: peptide concentrations up to 42 μM
[3] = target: T2, E. coli topoisomerase I (type Ia) (Escherichia coli, UniProt P06612); experiment: biochemical; conditions: peptide concentrations up to 42 μM
T2 sequence (P06612 1-865): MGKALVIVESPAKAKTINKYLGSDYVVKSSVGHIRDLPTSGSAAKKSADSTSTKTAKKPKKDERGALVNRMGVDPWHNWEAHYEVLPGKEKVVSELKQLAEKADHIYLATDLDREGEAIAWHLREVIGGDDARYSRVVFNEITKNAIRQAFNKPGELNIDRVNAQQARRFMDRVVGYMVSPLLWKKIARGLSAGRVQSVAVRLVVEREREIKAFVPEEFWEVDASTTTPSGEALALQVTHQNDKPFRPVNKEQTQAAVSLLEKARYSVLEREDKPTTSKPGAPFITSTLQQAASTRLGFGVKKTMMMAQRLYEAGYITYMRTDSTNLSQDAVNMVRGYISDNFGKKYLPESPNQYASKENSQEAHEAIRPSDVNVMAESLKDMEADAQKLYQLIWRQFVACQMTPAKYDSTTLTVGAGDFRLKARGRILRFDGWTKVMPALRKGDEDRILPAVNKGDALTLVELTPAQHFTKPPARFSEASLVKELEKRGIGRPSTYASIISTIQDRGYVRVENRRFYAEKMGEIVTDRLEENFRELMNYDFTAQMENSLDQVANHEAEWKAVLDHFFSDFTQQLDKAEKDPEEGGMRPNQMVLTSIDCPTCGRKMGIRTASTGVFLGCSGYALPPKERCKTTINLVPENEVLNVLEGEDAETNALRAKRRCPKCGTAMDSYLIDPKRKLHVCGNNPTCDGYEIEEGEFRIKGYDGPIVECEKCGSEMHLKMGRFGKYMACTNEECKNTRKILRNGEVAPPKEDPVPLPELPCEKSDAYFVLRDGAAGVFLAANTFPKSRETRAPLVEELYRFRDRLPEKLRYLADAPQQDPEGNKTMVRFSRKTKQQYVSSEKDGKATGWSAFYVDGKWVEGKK
From the text: E. coli topoisomerase I (TopA) exemplifies the type IA topoisomerase family. Type IA enzymes are mechanistically and structurally unrelated to the topoisomerase IB/tyrosine recombinase superfamily of DNA strand transferases.

[4] = target: T3, Lambda integrase (Int) (Bacteriophage lambda) (UniProt P03700); experiment: cleavage_in_vitro
T3 sequence: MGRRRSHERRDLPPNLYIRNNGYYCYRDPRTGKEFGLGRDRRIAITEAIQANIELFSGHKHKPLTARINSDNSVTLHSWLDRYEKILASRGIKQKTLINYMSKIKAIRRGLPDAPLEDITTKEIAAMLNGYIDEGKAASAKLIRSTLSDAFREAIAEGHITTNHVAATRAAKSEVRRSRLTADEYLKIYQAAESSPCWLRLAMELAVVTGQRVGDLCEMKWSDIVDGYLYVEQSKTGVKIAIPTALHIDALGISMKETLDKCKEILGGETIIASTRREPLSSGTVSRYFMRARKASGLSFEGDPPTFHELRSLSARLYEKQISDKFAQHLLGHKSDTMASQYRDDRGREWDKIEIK

WCHYNY was tested, and the “effect on transesterification (DNA cleavage)” value [1] was “did not inhibit transesterification”, the “effect on DNA relaxation” value [2] was “no effect” and the “effect on DNA relaxation” value [3] was “no effect”.
For “excision Holliday junction (attL x attR)”, the activity ([4]; Int alone HJ resolution, binds weakly alone, 42.4% with IHF, 14.4% with Xis, 58.2% with IHF+Xis, 95.3% with IHF+Xis no spermidine) was 7.2%.
In the case of attL + attR excision substrates, the activity ([4]; excision with IHF and Xis, no peptide) is reported as greater than 70%.
